Measurements published in patent publication US20260033491A1, “FUNGAL SPORE FORMULATIONS INCLUDING CARRIER FLUIDS” (priority 2018, published 2026).

What was measured:
Type in all cases: cell-based
I. fumosorosea spores = assay: Spore viability (germination rate) of Isaria fumosorosea spores dispersed in fluid and stored at 30° C.; conditions: I. fumosorosea spores in fluid; for spore viability [%] after 1 m (27 d) / spore viability [%] after 7 m (210 d): storage at 30° C.
Experimental: (§1) 1.5 g of I. fumosorosea pure spore powder were transferred into a formulation vessel (IKA Type DT-20 mixing vessel with dispersion tool for Ultra Turrax) using a sterile spoon. 13.5 mL of fluid were added into the respective formulation vessel and dispersed using ultra turrax tube drive control for 1 min at 3000 rpm; change direction after 30 sec. After this 2.8 mL were transferred in four sample bottles (Wheaton Serum vial, Type I) leaving little headspace and closed tight using crimpneck caps (Macherey—Nagel type N 13) Afterwards all sample bottles were transferred to an incubator set at 30° C. and stored for a given time.
(§2) In regular intervals a sample was retrieved from the storage location and analyzed for spore viability. Therefore the original samples were thoroughly homogenized. Aliquots of 0.25 g or 250 μL of each sample were transferred into 50 mL falcon tubes. The tubes were filled up to 25 g using a sterile aqueous solution containing 2% Tween 80 and homogenized by vortexing to achieve the first dilution step (1:100 dilution). This dilution was used for further dilution and spotting on agar.
Not all samples mixed well or mixed at all in 2% Tween 80. For these samples, an alternative dispersion/dilution method was applied where the oil phase is stripped from the spores first: 0.25 g or 250 μL of sample were weighted into a 2 mL Eppendorf tube, and 0.5 mL of 2% Tween 80 was added, and the mixture was transferred into an Eppendorf centrifuge where it was centrifuged for 1 min at 10.000 rpm. The supernatant (=upper oily phase) was discarded by using a pipette. Afterwards 250 μL of Breakthru S 240 were added and the spores were well dispersed. 250 μL or 0.25 g of each sample were transferred into a sterile 50 mL Falcon tube. The tubes were filled up to 25 g using a sterile aqueous solution containing 2% Tween 80 and homogenized by vortexing to achieve the first dilution step (1:100 dilution). This dilution was used for further dilution and spotting on agar.
(§3) For evaluation of spore germination rate prepare a 1:15000 dilution based on the 1:100 dilution achieved by multiple automated dilution (pipetting robot, 96 well plate). Afterwards 12×12 cm agar plates are taken and spotted with 10 times 5 μL of each sample using an automated 12-Channel pipet. Wait until liquid is soaked up by agar and transfer agar plate to an incubator and incubate at 23° C. for 16 hours. Open the plate and place it under the microscope. Randomly chose one area per spot and record the number of germinated and non-germinated spores that are within the designated field. At least 200 spores per sample need to be evaluated. If needed count more than one field per spot.

[1] = system: Beauveria bassiana spores; assay: Spore viability (germination rate) of Beauveria bassiana spores dispersed in fluid and stored at 30° C.; conditions: Beauveria bassiana spores in fluid; for spore viability [%] after 2 w (14 d) / spore viability [%] after 5 w (35 d): storage at 30° C.
Experimental: as §1, with “Beauveria bassiana” for “I. fumosorosea”
as §2, with “sample are” for “sample were”
For these samples, an alternative dispersion/dilution method was applied where the oil phase is stripped from the spores first: 0.25 g or 250 μL of sample are weighted into a 2 mL Eppendorf tube, and 0.5 mL of 2% Tween 80 is added, and the mixture is transferred into an Eppendorf centrifuge where it is centrifuged for 1 min at 10.000 rpm. The supernatant (=upper oily phase) is discarded by using a pipette. […] 250 μL or 0.25 g of each sample are transferred into a sterile 50 mL Falcon tube. The tubes were filled up to 25 g using a sterile aqueous solution containing 2% Tween 80 and homogenized by vortexing to achieve the first dilution step (1:100 dilution). This dilution is used for further dilution and spotting on agar.
as §3, with “20°” for “23°”, “17” for “16”

[2] = system: Penicillium bilaii spores; assay: Spore viability (germination rate) of Penicillium bilaii spores dispersed in fluid and stored at 30° C.; conditions: Penicillium bilaii spores in fluid; for spore viability [%] 6 w@30° C. (41-43 d) / spore viability [%] 3 m@30° C. (83-85 d): storage at 30° C.
Experimental: as §1, with “Penicillium bilaii” for “I. fumosorosea”
as §2, with “sample are” for “sample were”
Not all samples mixed well or mixed at all in 2% Tween 80. For these samples, an alternative dispersion/dilution method was applied where the oil phase is stripped from the spores first: 0.25 g or 250 μL of sample are weighted into a 2 mL Eppendorf tube, and 0.5 mL of 2% Tween 80 is added, and the mixture is transferred into an Eppendorf centrifuge where it is centrifuged for 1 min at 10.000 rpm. The supernatant (=upper oily phase) is discarded by using a pipette. Afterwards 250 μL of Breakthru S 240 are added and the spores are well dispersed. 250 μL or 0.25 g of each sample are transferred into a sterile 50 mL Falcon tube. The tubes were filled up to 25 g using a sterile aqueous solution containing 2% Tween 80 and homogenized by vortexing to achieve the first dilution step (1:100 dilution). This dilution is used for further dilution and spotting on agar.
as §3, with “20°” for “23°”, “17” for “16”

| SMILES | spore viability [%] at day 1 (I. fumosorosea spores) [%] | spore viability [%] after 1 m (27 d) (I. fumosorosea spores) [%] | spore viability [%] after 7 m (210 d) (I. fumosorosea spores) [%] | spore viability [%] at day 1 [1] [%] | spore viability [%] after 2 w (14 d) [1] [%] | spore viability [%] after 5 w (35 d) [1] [%] | spore viability [%] initial (1-2 d) [2] [%] | spore viability [%] 6 w@30° C. (41-43 d) [2] [%] | spore viability [%] 3 m@30° C. (83-85 d) [2] [%] |
| --- | --- | --- | --- | --- | --- | --- | --- | --- | --- |
| CCCCOC(=O)CCCCC(=O)OCCCC [Adimoll DB, di-n-Butyl adipate] | 89.5 | 66.6 | 60.0 | 87 | 66.1 | 37.7 | 97.5 | 90.8 | 75.5 |
| CC(=O)OCC(COC(C)=O)OC(C)=O [Triacetin, Glycerin triacetate] | 90 | 84.0 | 69.1 | 89.3 | 58.6 | 31.6 | 92.9 | 83.2 | 57.6 |
